In patent US20120108559A1, “RECEPTOR ACTIVATOR OF THE RANK RECEPTOR COMPLEX INHIBITOR” (THE TRUSTEES OF THE UNIVERSITY OF PENNSYLVANIA, priority 2009, published 2012):

Test system: murine osteoclast precursors
Test: TRANCE (RANKL)-induced osteoclast formation in vitro, TRAP assay
Assay type: cell-based
Conditions: osteoclast precursors cultured 3 days with murine CSF-1 (30 ng/mL) and TRANCE (300 ng/mL); FIG. 1
Procedure: The effects of the compound of Formula II-A-1 on TRANCE-mediated osteoclastogenesis were evaluated against murine osteoclast precursors using a TRAP (tartrate resistant acid phosphatase) assay. The techniques comprising this method are described more fully in U.S. Pat. No. 6,673,771.
Osteoclast precursors were cultured in 96-well plates (1×10^5/mL, 200 μL/well) for 3 days in the presence of murine CSF-1 (30 ng/mL) and TRANCE (300 ng/mL) with or without the compounds of Formulae III-1 and II-A-1 at the indicated concentration. After 3 days, the cells were fixed and stained for tartrate-resistant acid phosphatase (TRAP). TRAP-positive multinucleated cells were counted as osteoclast-like multinucleated cells.

For `CC(=O)OCC12CCC(OC(C)=O)CC1(O)CC[C@@H]1[C@@H]2CCC2(C)C(C3=CC(=O)OC3)CCC12O` (some centres unmarked) [II-A-1], the “inhibition of TRANCE induced osteoclast formation (TRAP-positive multinucleated cells)” value was “inhibited TRANCE induced osteoclast formation in vitro in a dose-dependent manner”.
In the case of `CC12CC[C@H]3[C@@H](CCC4(O)CC(OC(=O)CCC(=O)O)CCC34COC(=O)CCC(=O)O)C1(O)CCC2C1=CC(=O)OC1` (some centres unmarked) [III-1], the “inhibition of TRANCE induced osteoclast formation (TRAP-positive multinucleated cells)” value is reported as “inhibited TRANCE induced osteoclast formation in vitro in a dose-dependent manner”.
